Laboratory results published in patent US7279477B2 (Chugai Seiyaku Kabushiki Kaisha, priority 2001, dated 2007).
Read-outs that look alike come from different tables or passages of the source.

Key:
[1] = molecular target: T1, malonyl-CoA decarboxylase prepared from rat heart (Rattus norvegicus, UniProt Q920F5); experiment: In vitro MCD inhibitory assay (spectrophotometric, 96 well); assay type: biochemical
T1 construct: from tissue; host or cells: rat heart
T1 sequence (Q920F5 39-492): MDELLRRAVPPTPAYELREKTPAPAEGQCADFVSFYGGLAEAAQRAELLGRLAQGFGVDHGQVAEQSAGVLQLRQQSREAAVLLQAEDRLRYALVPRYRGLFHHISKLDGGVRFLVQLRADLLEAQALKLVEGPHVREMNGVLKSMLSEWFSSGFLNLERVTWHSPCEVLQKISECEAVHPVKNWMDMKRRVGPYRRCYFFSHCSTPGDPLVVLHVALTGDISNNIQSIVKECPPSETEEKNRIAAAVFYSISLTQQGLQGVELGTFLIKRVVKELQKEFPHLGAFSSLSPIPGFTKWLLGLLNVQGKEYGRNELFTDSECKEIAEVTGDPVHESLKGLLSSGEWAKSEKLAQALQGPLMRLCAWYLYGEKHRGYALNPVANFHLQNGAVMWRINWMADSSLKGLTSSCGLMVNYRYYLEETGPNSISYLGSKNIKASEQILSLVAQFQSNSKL
Method: The following reagents are added into a 96 well titer plate: Tris-HCl buffer, 20 μL, DTE, 10 μL; I-malate, 20 μL; NAD, 10 μL; NADH, 25 μL; water, 80 μL; malic dehydrogenase, 5 μL. The contents are mixed and incubated for 2 min followed by the addition of 5 μL of citrate synthase.

[2] = molecular target: T2, carnitine palmitoyltransferase-I (CPT-I) muscle (M) isoform (Homo sapiens, UniProt Q92523); details: read-out: IC50 of malonyl-CoA inhibition of CPT-I; cited from earlier work
T2 sequence (Q92523 1-772): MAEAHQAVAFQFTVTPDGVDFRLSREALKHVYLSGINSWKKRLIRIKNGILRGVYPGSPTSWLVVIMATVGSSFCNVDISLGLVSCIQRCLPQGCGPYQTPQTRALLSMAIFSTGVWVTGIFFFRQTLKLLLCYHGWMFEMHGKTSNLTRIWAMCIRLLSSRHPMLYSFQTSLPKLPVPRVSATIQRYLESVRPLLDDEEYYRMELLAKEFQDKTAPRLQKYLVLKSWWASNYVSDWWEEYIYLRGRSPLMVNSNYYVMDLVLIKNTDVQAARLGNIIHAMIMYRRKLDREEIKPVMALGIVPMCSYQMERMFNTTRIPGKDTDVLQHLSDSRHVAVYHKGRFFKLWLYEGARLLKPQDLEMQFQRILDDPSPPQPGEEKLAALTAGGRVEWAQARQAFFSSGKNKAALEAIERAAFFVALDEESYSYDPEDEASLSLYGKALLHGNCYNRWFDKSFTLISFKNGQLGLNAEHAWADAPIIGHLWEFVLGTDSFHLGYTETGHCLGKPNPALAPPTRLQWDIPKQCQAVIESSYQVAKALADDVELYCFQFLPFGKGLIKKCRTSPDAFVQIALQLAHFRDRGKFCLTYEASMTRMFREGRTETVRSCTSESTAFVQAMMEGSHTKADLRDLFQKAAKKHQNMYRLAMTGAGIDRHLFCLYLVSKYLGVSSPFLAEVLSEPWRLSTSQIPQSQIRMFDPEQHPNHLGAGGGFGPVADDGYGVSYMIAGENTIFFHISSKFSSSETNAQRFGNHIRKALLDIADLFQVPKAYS

breast carcinoma cells = details: Pizer et al.; cited from earlier work
[3] = MCD from rat heart, concentration causing 50% inhibition of MCD activity, read-out: IC50 of the MCD inhibitors

Q: With OC(c1ccc(N(Cc2ccc(C(F)(F)F)cc2)C(=S)N2CCOCC2)cc1)(C(F)(F)F)C(F)(F)F [Example 1, morpholine-4-carbothioic acid [4-(2,2,2-trifluoro-1-hydroxy-1-trifluoromethyl-ethyl)-phenyl]-(4-trifluoromethyl-benzyl)-amide] as the compound, how does the IC50 [1, 3] read?
A: 123 nM

Q: With N#CCCCCN(C(=S)N1CCOCC1)c1ccc(C(O)(C(F)(F)F)C(F)(F)F)cc1 [Example 2, N-(4-cyanobutyl)-N-{4-[2,2,2-trifluoro-1-hydroxy-1-(trifluoromethyl)ethyl]phenyl}morpholine-4-carbothioamide] as the compound, how does the IC50 [1, 3] read?
A: 42 nM

Q: For CCCCN(C(=N)N(CC)CC)c1ccc(C(O)(C(F)(F)F)C(F)(F)F)cc1.Cl [Example 4, butyl {4-[2,2,2-trifluoro-1-hydroxy-1-(trifluoromethyl)ethyl]phenyl}amino)(diethylamino)methaniminium chloride], which IC50 [1, 3] is on record?
A: 164 nM

Q: With CCCCN(C(=N)N(CC)CC)c1ccc(C(O)(C(F)(F)F)C(F)(F)F)cc1.Cl [Example 4] as the compound, how does the melting point read?
A: 217.1 to 219.2 °C (dec.)

Q: With COC(=O)CCCCN(C(=S)N1CCOCC1)c1ccc(C(O)(C(F)(F)F)C(F)(F)F)cc1 [Example 5-48] as the compound, how does the IC50 [1, 3] read?
A: 45 nM

Q: For CCCCN(C(=S)N(CC)CC)c1ccc(C(O)(C(F)(F)F)C(F)(F)F)cc1 [Example 5-108], which IC50 [1, 3] is on record?
A: 147 nM

Q: Which IC50 [1, 3] does the source give for CC(C)(C)OC(=O)CCNC(=O)C1CC(c2ccc(C(O)(C(F)(F)F)C(F)(F)F)cc2)=NO1 (stereo not drawn) [Example 12, 1,1-dimethylethyl N-[(3-{4-[2,2,2-trifluoro-1-hydroxy-1-(trifluoromethyl)ethyl]phenyl}-4,5-dihydroisoxazol-5-yl)carbonyl]-beta-alaninate] here?
A: 515 nM

Q: Which IC50 [1, 3] does the source give for CCCC(O)(CCC)c1ccc(C(O)(C(F)(F)F)C(F)(F)F)cc1 [Example 15] here?
A: 127 nM

Q: With CCCCNC(=O)c1c(-c2ccccc2)nc(-c2ccc(C(O)(C(F)(F)F)C(F)(F)F)cc2)n1CCC [Example 22, N-butyl-4-phenyl-1-propyl-2-{4-[2,2,2-trifluoro-1-hydroxy-1-(trifluoromethyl)ethyl]phenyl}-1H-imidazole-5-carboxamide] as the compound, how does the IC50 [1, 3] read?
A: 354 nM

Q: For CCCCNC(=O)c1c(-c2ccccc2)nc(-c2ccc(C(O)(C(F)(F)F)C(F)(F)F)cc2)n1C(C)C [Example 23-11], which IC50 [1, 3] is on record?
A: 44 nM

Q: Which IC50 [1] does the source give for CCOP(=O)(OCC)N(CC)c1ccc(C(O)(C(F)(F)F)C(F)(F)F)cc1 [Example 28, diethyl ethyl{4-[2,2,2-trifluoro-1-hydroxyl-1-(trifluoromethyl)ethyl]phenyl}amidophosphate] here?
A: 90 nM

Q: For CC(C)(COP(=O)(O)OP(=O)(O)OC[C@H]1O[C@@H](n2cnc3c(N)ncnc32)[C@H](O)[C@@H]1OP(=O)(O)O)[C@@H](O)C(=O)NCCC(=O)NCCSC(=O)CC(=O)O [Malonyl-CoA], which IC50 [2] is on record?
A: 30 nM

Q: For CCCCCCCCCCCCCCOc1ccc(C(=O)O)o1 [TOFA, 5-(tetradecyloxy)-2-furoic acid], which malonyl-CoA level (breast carcinoma cells) is on record?
A: 60 % of the control
